# Laboratory results: patent publication US20110184147A1, “ENZYME SUBSTRATE FOR LABELING OF PROTEIN” (priority 2008, published 2011)
# Key:
# GTG = target: T1, GTG (UniProt P08587); assay: Reactivity of GTG for fluorescent substrate (crosslinking with β-casein); format: biochemical, guinea pig; conditions: substrate 1 mM, β-casein 0.5 mg/ml, GTG 0.2 U/ml, 50 mM HEPES pH 7.4, overnight 27° C.
# T1 construct: purchased
# T1 sequence (P08587 1-690): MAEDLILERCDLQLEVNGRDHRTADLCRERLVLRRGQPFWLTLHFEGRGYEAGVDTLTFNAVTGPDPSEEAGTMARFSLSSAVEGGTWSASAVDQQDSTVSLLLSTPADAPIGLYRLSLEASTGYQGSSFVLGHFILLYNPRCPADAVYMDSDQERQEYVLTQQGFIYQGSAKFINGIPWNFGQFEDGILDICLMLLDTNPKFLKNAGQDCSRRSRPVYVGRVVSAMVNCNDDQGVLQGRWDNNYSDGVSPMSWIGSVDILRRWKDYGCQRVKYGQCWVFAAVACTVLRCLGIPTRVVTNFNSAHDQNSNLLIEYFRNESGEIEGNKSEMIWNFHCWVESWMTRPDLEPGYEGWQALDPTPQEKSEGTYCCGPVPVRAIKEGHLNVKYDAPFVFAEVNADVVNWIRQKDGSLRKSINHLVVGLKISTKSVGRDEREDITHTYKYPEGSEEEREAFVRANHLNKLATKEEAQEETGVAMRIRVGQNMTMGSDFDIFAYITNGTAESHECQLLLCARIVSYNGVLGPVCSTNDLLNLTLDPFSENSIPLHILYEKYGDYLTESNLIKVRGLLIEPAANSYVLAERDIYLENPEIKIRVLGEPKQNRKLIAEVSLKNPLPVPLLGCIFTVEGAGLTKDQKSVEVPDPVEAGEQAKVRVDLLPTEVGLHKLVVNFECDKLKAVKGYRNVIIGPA
# Protocol: In the experiment, β-casein was used as a protein having a TGase-recognizable Lys and a reaction for crosslinking with a fluorescent substrate was performed to evaluate its reactivity for GTG.
# To perform a binding reaction, FITC-β-Ala-QG, β-casein and GTG were added to 50 mM HEPES (5 mM NaCl, 10 mM CaCl2, pH 7.4) to give respective final concentrations of 1 mM, 0.5 mg/ml and 0.2 U/ml and the resulting mixture was left to stand overnight at 27° C. Two comparative samples were prepared; one was a GTG-free sample and the other was prepared by performing an MTG-catalyzed reaction. For the MTG-catalyzed binding reaction, FITC-β-Ala-QG, β-casein and MTG were added to a 10 mM phosphate buffer (pH 7) to give respective final concentrations of 1 mM, 0.5 mg/ml and 1 U/ml and the resulting mixture was left to stand overnight at 27° C. Tracing on the sample after the reaction was performed by the same procedure as in Experiment 2-2.
# MTG [1] = target: T2, MTG (Streptomyces mobaraensis, UniProt P81453); assay: MTG-catalyzed introduction of fluorescent substrates into anti-lysozyme IgG2a antibody; format: biochemical, microbial; conditions: substrate 1 mM, mouse anti-lysozyme IgG2a 0.5 mg/ml, MTG 1 U/ml, pH 7, overnight 4° C.; reduced SDS-PAGE
# T2 construct: purchased AJINOMOTO (supplied as a gift)
# Protocol: A fluorescent substrate (FITC-ε-Acp-QG, FITC-β-Ala-QG, TR-β-Ala-QG or […]), mouse-derived anti-lysozyme IgG2a antibody (monoclonal) and MTG were added to a 10 mM phosphate buffer (pH 7) to give respective final concentrations of 1 mM, 0.5 mg/ml and 1 U/ml. For the purpose of comparison, an MTG-free sample was prepared. The ingredients were thoroughly agitated and the resulting solution was left to stand overnight at 4° C.
# After the reaction, the samples were subjected to SDS-PAGE. The gel from SDS-PAGE was examined with a fluorescent imager before it was stained with a CBB dye solution. For the Dns-ε-Acp-QG containing sample, examination was made with a transilluminator.
# MTG [2] = target: T2, MTG; assay: MTG-catalyzed introduction of fluorescent substrate into anti-PSA IgG antibody (optimization, substrate comparison); format: biochemical, microbial
# Protocol: To a 50 mM buffer whose pH was varied over the range from 5 to 9 (pH 5 acetate buffer; pH 6-7 phosphate buffer; pH 8 Tris-HCl; pH 9 boric acid buffer), FITC-β-Ala-QG, an anti-PSA (prostate specific antigen) IgG antibody (mouse-derived, monoclonal) and MTG were added to give respective final concentrations of 0.1 mM, 0.5 mg/ml, and 1 U/ml. These ingredients were well stirred and left to stand at 4° C. for reaction. After 1-hr or 6-hr reaction, the sample was mixed with a sample buffer and heated at 95° C. for 15 minutes to stop the reaction. Thereafter, SDS-polyacrylamide gel electrophoresis (SDS-PAGE) was applied. The gel from SDS-PAGE was stained with Coomassie Brilliant Blue (CBB) and observed with a fluorescent imager.
# To 50 mM Tris-HCl (pH 8), FITC-β-Ala-QG, an anti-PSA IgG antibody and MTG were added to give respective final concentrations of 1 mM, 0.5 mg/ml, and 0.001-1 U/ml. These ingredients were well stirred and left to stand at 4° C. for reaction. The reaction was stopped and evaluation was made by the same procedures as in Experiment 2-1.
# To 50 mM Tris-HCl (pH 8), FITC-β-Ala-QG, an anti-PSA IgG antibody and MTG were added to give respective final concentrations of 0.001-1 mM, 0.5 mg/ml, and 1 U/ml. These ingredients were well stirred and left to stand at 4° C. for reaction. The reaction was stopped and evaluation was made by the same procedures as in Experiment 2-1.
# To PBS, FITC-β-Ala-QG, an anti-PSA IgG antibody (mouse-derived, monoclonal) and MTG were added to give respective final concentrations of 1 mM, 0.5 mg/ml, and 1 U/ml. These ingredients were well stirred and left to stand at 4° C. or 40° C. for reaction. After 3-, 6- and 18-hr reactions, the reaction was stopped and evaluation was made by the same procedures as in Experiment 2-1.
# To PBS, FITC-β-Ala-QG, an anti-PSA IgG antibody (mouse-derived, monoclonal) and MTG were added to give respective final concentrations of 1 mM, 0.5 mg/ml, and 1 U/ml. These ingredients were well stirred and left to stand for 18 hours at 4° C. for reaction. For the purpose of comparison, two additional samples were prepared, one being free of FITC-β-Ala-QG-biotin and the other having been reacted with a biotin-free fluorescent substrate (FITC-β-Ala-QG). After the reaction, the samples were purified by ultrafiltration (product of MILLIPORE Corp.; 100 kDa cut).
# T2 sequence (P81453 77-407): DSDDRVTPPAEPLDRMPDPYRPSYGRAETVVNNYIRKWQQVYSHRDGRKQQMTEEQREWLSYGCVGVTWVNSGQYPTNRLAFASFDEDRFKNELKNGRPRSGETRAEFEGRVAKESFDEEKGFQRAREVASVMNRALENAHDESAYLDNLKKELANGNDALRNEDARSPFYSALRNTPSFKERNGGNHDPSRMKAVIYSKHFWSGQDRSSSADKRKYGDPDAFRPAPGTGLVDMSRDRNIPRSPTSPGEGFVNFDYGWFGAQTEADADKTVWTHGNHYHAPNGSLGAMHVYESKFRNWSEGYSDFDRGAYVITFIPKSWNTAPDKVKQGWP
smiles,measurement,setting,value
NC(=O)CCC(NC(=O)CCNC(=S)Nc1ccc(-c2c3ccc(=O)cc-3oc3cc(O)ccc23)c(C(=O)O)c1)C(=O)NCC(=O)O (stereo not drawn) [FITC-β-Ala-QG],Reactivity of fluorescent substrate for GTG,GTG,also recognized by MTG
same,Reactivity of antibody with fluorescent substrate by MTG catalysis,MTG [1],H chains of the antibody are modified
same,pH of highly efficient introduction into antibody,"MTG [2]; anti-PSA IgG antibody, substrate 0.1 mM, MTG 1 U/ml, 4° C., 1 and 6 hours",~7
same,Substrate concentration dependency of antibody labeling,"MTG [2]; anti-PSA IgG antibody, substrate 0.001-1 mM, MTG 1 U/ml, pH 8, 4° C.",proceeded with the increasing substrate concentration
same,MTG concentration at which a highly efficient reaction proceeded,"MTG [2]; anti-PSA IgG antibody, substrate 1 mM, pH 8, 4° C., MTG 0.001-1 U/ml",1 U
same,Introduction into the antibody,MTG [2]; before the addition of the resin (lanes 1-3),verified the introduction
